Source: US20260158017A1, “KIF18A INHIBITOR” (WIGEN BIOMEDICINE TECHNOLOGY (SHANGHAI) CO., LTD., priority 2021, published 2026)

Target: T1, Recombinant human KIF18A (1-467His-tagged) protein (Homo sapiens, UniProt Q8NI77)
T1 construct: Recombinant human KIF18A (1-467His-tagged) protein; His; made in house
Assay: KIF18A enzyme assay (microtubule-stimulated ATPase activity, ADP-Glo)
Type: biochemical
Conditions: 30 nM KIF18A, 75 μM ATP, 30 μg/mL pig microtubules; read-out: Inhibitory activity against KIF18A IC50
Procedure: In Vitro Assay of the Compounds of the Present Invention for Inhibiting Enzymatic Activity of KIF18A
KIF18A enzyme assay: The enzymatic activity of KIF18A after treatment with the compounds was measured by an assay of microtubule-stimulated ATPase activity. ADP generated from the ATPase reaction was measured in this assay. The compounds were serially diluted 2-fold in DMSO over a range of 22 concentration points. […] Concentrations of KIF18A protein, microtubules, and ATP in the reaction were optimized for a standardized homogenous enzyme assay using an ADP-Glo kinase/ATPase assay kit. A reaction buffer [(15 mM Tris, pH 7.5), 10 mM MgCl2, 0.01% PluronicF-68, 1 μM paclitaxel, and 30 μg/mL pig microtubules] was prepared. […] The resulting reaction mixture was incubated at room temperature for another 15 min. 5 μL of ADP-Glo reagent and 2.5 μL of the reaction mixture were mixed and the resulting mixture was incubated at room temperature for 40 min. 10 μL of ADP-Glo detection reagent was added and the mixture was incubated at room temperature for 40 min. Luminescence was read using a microplate reader and compared with that of the DMSO group, and then the inhibition percentages and IC50 values of the compounds were calculated.

T1 sequence (Q8NI77 1-467): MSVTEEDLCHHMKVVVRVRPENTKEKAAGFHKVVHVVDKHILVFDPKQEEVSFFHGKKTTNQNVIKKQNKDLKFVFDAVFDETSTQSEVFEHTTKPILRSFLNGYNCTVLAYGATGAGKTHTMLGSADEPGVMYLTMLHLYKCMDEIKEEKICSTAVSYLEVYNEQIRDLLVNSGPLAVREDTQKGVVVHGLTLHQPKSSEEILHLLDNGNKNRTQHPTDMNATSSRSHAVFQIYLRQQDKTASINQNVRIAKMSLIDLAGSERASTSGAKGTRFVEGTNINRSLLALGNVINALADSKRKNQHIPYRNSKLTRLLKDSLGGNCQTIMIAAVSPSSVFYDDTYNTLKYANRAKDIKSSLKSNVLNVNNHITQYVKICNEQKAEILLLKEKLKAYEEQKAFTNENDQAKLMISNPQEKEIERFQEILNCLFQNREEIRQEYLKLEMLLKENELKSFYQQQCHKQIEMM
T1 sequence (P02550 whole entry partner): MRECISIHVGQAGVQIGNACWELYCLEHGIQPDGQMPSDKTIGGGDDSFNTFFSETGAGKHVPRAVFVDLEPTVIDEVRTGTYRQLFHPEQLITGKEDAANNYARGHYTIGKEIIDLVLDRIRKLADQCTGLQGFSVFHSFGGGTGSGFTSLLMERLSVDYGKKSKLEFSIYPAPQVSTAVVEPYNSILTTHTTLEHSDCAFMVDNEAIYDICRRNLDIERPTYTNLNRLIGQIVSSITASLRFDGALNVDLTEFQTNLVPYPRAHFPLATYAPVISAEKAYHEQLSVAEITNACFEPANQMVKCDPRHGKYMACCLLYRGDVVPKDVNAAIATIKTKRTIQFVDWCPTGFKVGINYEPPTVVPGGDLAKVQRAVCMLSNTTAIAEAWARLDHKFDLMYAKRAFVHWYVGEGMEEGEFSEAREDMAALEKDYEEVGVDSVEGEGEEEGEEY
T1 sequence (P02554 whole entry partner): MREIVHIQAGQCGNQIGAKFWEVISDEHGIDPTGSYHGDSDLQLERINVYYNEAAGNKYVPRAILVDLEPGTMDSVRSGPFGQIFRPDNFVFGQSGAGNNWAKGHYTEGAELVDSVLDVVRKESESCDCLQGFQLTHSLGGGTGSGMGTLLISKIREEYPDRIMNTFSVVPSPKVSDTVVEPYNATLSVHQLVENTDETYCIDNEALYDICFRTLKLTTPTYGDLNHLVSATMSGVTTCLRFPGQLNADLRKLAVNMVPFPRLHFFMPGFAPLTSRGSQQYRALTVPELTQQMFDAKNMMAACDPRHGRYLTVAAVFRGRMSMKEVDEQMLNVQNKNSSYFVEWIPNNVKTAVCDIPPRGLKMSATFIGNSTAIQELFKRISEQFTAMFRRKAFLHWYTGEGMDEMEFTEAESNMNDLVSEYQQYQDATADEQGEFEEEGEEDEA

SMILES | IC50 [nM]
C[C@@H]1CN(c2cc(NC(=O)c3ccc(NS(=O)(=O)CCO)cc3N3CCC4(CC3)CC4)ccc2[N+](=O)[O-])CCO1 [Compound 2] | ≤ 100
O=C(Nc1ccc([N+](=O)[O-])c(OCCC(F)(F)F)c1)c1ccc(NS(=O)(=O)CCO)cc1N1CCC2(CC1)CC2 [Compound 5] | ≤ 100
CC1(F)CCN(c2cc(NC(=O)c3ccc(NS(=O)(=O)CCO)cc3N3CCC4(CC3)CC4)ccc2[N+](=O)[O-])C1 (stereo not shown) [Compound 8] | ≤ 100
O=C(Nc1ccc([N+](=O)[O-])c(N2CCC(F)CC2)c1)c1ccc(NS(=O)(=O)CCO)cc1N1CCC2(CC1)CC2 [Compound 9] | ≤ 100
O=C(Nc1ccc([N+](=O)[O-])c(N2CC3CC3C2)c1)c1ccc(NS(=O)(=O)CCO)cc1N1CCC2(CC1)CC2 (stereo not shown) [Compound 10] | ≤ 100
CC(C)(CO)Nc1cc(NC(=O)c2ccc(NS(=O)(=O)CCO)cc2N2CCC3(CC2)CC3)ccc1[N+](=O)[O-] [Compound 11] | ≤ 100
O=C(Nc1ccc([N+](=O)[O-])c(N2CCOCC2)c1)c1ccc(NS(=O)(=O)CCO)cc1N1CCC2(CC1)CC2 [Compound 12] | ≤ 100
C[C@@H](CO)S(=O)(=O)Nc1ccc(C(=O)Nc2ccc([N+](=O)[O-])c(N3CCC(F)(F)CC3)c2)c(N2CCC3(CC2)CC3)c1 [Compound 13] | ≤ 100
C[C@H](CO)S(=O)(=O)Nc1ccc(C(=O)Nc2ccc([N+](=O)[O-])c(N3CCC(F)(F)CC3)c2)c(N2CCC3(CC2)CC3)c1 [Compound 14] | ≤ 100
C[C@@H]1CN(c2cc(NC(=O)c3ccc(NS(=O)(=O)[C@@H](C)CO)cc3N3CCC4(CC3)CC4)ccc2[N+](=O)[O-])CCO1 [Compound 15] | ≤ 100
C[C@@H]1CN(c2cc(NC(=O)c3ccc(NS(=O)(=O)[C@H](C)CO)cc3N3CCC4(CC3)CC4)ccc2[N+](=O)[O-])CCO1 [Compound 16] | ≤ 100
O=C(Nc1ccc([N+](=O)[O-])c(N2CCC(F)(F)CC2)c1)c1ccc(S(=O)(=O)NCCO)cc1N1CCC2(CC1)CC2 [Compound 17] | ≤ 100
C[C@@H]1CN(c2cc(NC(=O)c3ccc(S(=O)(=O)NCCO)cc3N3CCC4(CC3)CC4)ccc2[N+](=O)[O-])CCO1 [Compound 18] | ≤ 100
C[C@H]1CN(c2cc(NC(=O)c3ccc(S(=O)(=O)NCCO)cc3N3CCC4(CC3)CC4)ccc2[N+](=O)[O-])CCO1 [Compound 19] | ≤ 100
O=C(Nc1ccc([N+](=O)[O-])c(N2CC(F)(F)C2)c1)c1ccc(S(=O)(=O)NCCO)cc1N1CCC2(CC1)CC2 [Compound 20] | ≤ 100
O=C(Nc1ccc([N+](=O)[O-])c(OCCC(F)(F)F)c1)c1ccc(S(=O)(=O)NCCO)cc1N1CCC2(CC1)CC2 [Compound 21] | ≤ 100
O=C(Nc1ccc([N+](=O)[O-])c(N2CCC3(CC3)C2)c1)c1ccc(S(=O)(=O)NCCO)cc1N1CCC2(CC1)CC2 [Compound 22] | ≤ 100
O=C(Nc1ccc([N+](=O)[O-])c(OC2CCC2)c1)c1ccc(S(=O)(=O)NCCO)cc1N1CCC2(CC1)CC2 [Compound 23] | ≤ 100
CC1(F)CCN(c2cc(NC(=O)c3ccc(S(=O)(=O)NCCO)cc3N3CCC4(CC3)CC4)ccc2[N+](=O)[O-])C1 (stereo not shown) [Compound 24] | ≤ 100
O=C(Nc1ccc([N+](=O)[O-])c(N2CCC(F)CC2)c1)c1ccc(S(=O)(=O)NCCO)cc1N1CCC2(CC1)CC2 [Compound 25] | ≤ 100
O=C(Nc1ccc([N+](=O)[O-])c(N2CC3CC3C2)c1)c1ccc(S(=O)(=O)NCCO)cc1N1CCC2(CC1)CC2 (stereo not shown) [Compound 26] | ≤ 100
CC(C)(CO)Nc1cc(NC(=O)c2ccc(S(=O)(=O)NCCO)cc2N2CCC3(CC2)CC3)ccc1[N+](=O)[O-] [Compound 27] | ≤ 100
O=C(Nc1ccc([N+](=O)[O-])c(N2CCOCC2)c1)c1ccc(S(=O)(=O)NCCO)cc1N1CCC2(CC1)CC2 [Compound 28] | ≤ 100
C[C@@H](CO)NS(=O)(=O)c1ccc(C(=O)Nc2ccc([N+](=O)[O-])c(N3CCC(F)(F)CC3)c2)c(N2CCC3(CC2)CC3)c1 [Compound 29] | ≤ 100
C[C@H](CO)NS(=O)(=O)c1ccc(C(=O)Nc2ccc([N+](=O)[O-])c(N3CCC(F)(F)CC3)c2)c(N2CCC3(CC2)CC3)c1 [Compound 30] | ≤ 100
C[C@@H]1CN(c2cc(NC(=O)c3ccc(S(=O)(=O)N[C@@H](C)CO)cc3N3CCC4(CC3)CC4)ccc2[N+](=O)[O-])CCO1 [Compound 31] | ≤ 100
C[C@H](CO)NS(=O)(=O)c1ccc(C(=O)Nc2ccc([N+](=O)[O-])c(N3CCO[C@H](C)C3)c2)c(N2CCC3(CC2)CC3)c1 [Compound 32] | ≤ 100
O=C(Nc1ccc(NS(=O)(=O)CCO)cc1N1CCC2(CC1)CC2)c1ccc([N+](=O)[O-])c(N2CCC(F)(F)CC2)c1 [Compound 33] | ≤ 100

SMILES | IC50 [nM]
C[C@@H]1CN(c2cc(C(=O)Nc3ccc(NS(=O)(=O)CCO)cc3N3CCC4(CC3)CC4)ccc2[N+](=O)[O-])CCO1 [Compound 34] | ≤ 100
C[C@H]1CN(c2cc(C(=O)Nc3ccc(NS(=O)(=O)CCO)cc3N3CCC4(CC3)CC4)ccc2[N+](=O)[O-])CCO1 [Compound 35] | 100 to 500
O=C(Nc1ccc(NS(=O)(=O)CCO)cc1N1CCC2(CC1)CC2)c1ccc([N+](=O)[O-])c(N2CC(F)(F)C2)c1 [Compound 36] | ≤ 100
O=C(Nc1ccc(NS(=O)(=O)CCO)cc1N1CCC2(CC1)CC2)c1ccc([N+](=O)[O-])c(OCCC(F)(F)F)c1 [Compound 37] | ≤ 100
O=C(Nc1ccc(NS(=O)(=O)CCO)cc1N1CCC2(CC1)CC2)c1ccc([N+](=O)[O-])c(N2CCC3(CC3)C2)c1 [Compound 38] | ≤ 100
O=C(Nc1ccc(NS(=O)(=O)CCO)cc1N1CCC2(CC1)CC2)c1ccc([N+](=O)[O-])c(OC2CCC2)c1 [Compound 39] | ≤ 100
CC1(F)CCN(c2cc(C(=O)Nc3ccc(NS(=O)(=O)CCO)cc3N3CCC4(CC3)CC4)ccc2[N+](=O)[O-])C1 (stereo not shown) [Compound 40] | ≤ 100
O=C(Nc1ccc(NS(=O)(=O)CCO)cc1N1CCC2(CC1)CC2)c1ccc([N+](=O)[O-])c(N2CCC(F)CC2)c1 [Compound 41] | ≤ 100
O=C(Nc1ccc(NS(=O)(=O)CCO)cc1N1CCC2(CC1)CC2)c1ccc([N+](=O)[O-])c(N2CC3CC3C2)c1 (stereo not shown) [Compound 42] | ≤ 100
CC(C)(CO)Nc1cc(C(=O)Nc2ccc(NS(=O)(=O)CCO)cc2N2CCC3(CC2)CC3)ccc1[N+](=O)[O-] [Compound 43] | ≤ 100
O=C(Nc1ccc(NS(=O)(=O)CCO)cc1N1CCC2(CC1)CC2)c1ccc([N+](=O)[O-])c(N2CCOCC2)c1 [Compound 44] | ≤ 100
C[C@@H](CO)S(=O)(=O)Nc1ccc(NC(=O)c2ccc([N+](=O)[O-])c(N3CCC(F)(F)CC3)c2)c(N2CCC3(CC2)CC3)c1 [Compound 45] | 100 to 500
C[C@H](CO)S(=O)(=O)Nc1ccc(NC(=O)c2ccc([N+](=O)[O-])c(N3CCC(F)(F)CC3)c2)c(N2CCC3(CC2)CC3)c1 [Compound 46] | 100 to 500
C[C@@H]1CN(c2cc(C(=O)Nc3ccc(NS(=O)(=O)[C@@H](C)CO)cc3N3CCC4(CC3)CC4)ccc2[N+](=O)[O-])CCO1 [Compound 47] | 100 to 500
C[C@@H]1CN(c2cc(C(=O)Nc3ccc(NS(=O)(=O)[C@H](C)CO)cc3N3CCC4(CC3)CC4)ccc2[N+](=O)[O-])CCO1 [Compound 48] | 100 to 500
O=C(Nc1ccc(S(=O)(=O)NCCO)cc1N1CCC2(CC1)CC2)c1ccc([N+](=O)[O-])c(N2CCC(F)(F)CC2)c1 [Compound 49] | 100 to 500
C[C@@H]1CN(c2cc(C(=O)Nc3ccc(S(=O)(=O)NCCO)cc3N3CCC4(CC3)CC4)ccc2[N+](=O)[O-])CCO1 [Compound 50] | 100 to 500
C[C@H]1CN(c2cc(C(=O)Nc3ccc(S(=O)(=O)NCCO)cc3N3CCC4(CC3)CC4)ccc2[N+](=O)[O-])CCO1 [Compound 51] | 100 to 500
O=C(Nc1ccc(S(=O)(=O)NCCO)cc1N1CCC2(CC1)CC2)c1ccc([N+](=O)[O-])c(N2CC(F)(F)C2)c1 [Compound 52] | 100 to 500
O=C(Nc1ccc(S(=O)(=O)NCCO)cc1N1CCC2(CC1)CC2)c1ccc([N+](=O)[O-])c(OCCC(F)(F)F)c1 [Compound 53] | 100 to 500
O=C(Nc1ccc(S(=O)(=O)NCCO)cc1N1CCC2(CC1)CC2)c1ccc([N+](=O)[O-])c(N2CCC3(CC3)C2)c1 [Compound 54] | 100 to 500
O=C(Nc1ccc(S(=O)(=O)NCCO)cc1N1CCC2(CC1)CC2)c1ccc([N+](=O)[O-])c(OC2CCC2)c1 [Compound 55] | 100 to 500
CC1(F)CCN(c2cc(C(=O)Nc3ccc(S(=O)(=O)NCCO)cc3N3CCC4(CC3)CC4)ccc2[N+](=O)[O-])C1 (stereo not shown) [Compound 56] | 100 to 500
O=C(Nc1ccc(S(=O)(=O)NCCO)cc1N1CCC2(CC1)CC2)c1ccc([N+](=O)[O-])c(N2CCC(F)CC2)c1 [Compound 57] | 100 to 500
O=C(Nc1ccc(S(=O)(=O)NCCO)cc1N1CCC2(CC1)CC2)c1ccc([N+](=O)[O-])c(N2CC3CC3C2)c1 (stereo not shown) [Compound 58] | 100 to 500
CC(C)(CO)Nc1cc(C(=O)Nc2ccc(S(=O)(=O)NCCO)cc2N2CCC3(CC2)CC3)ccc1[N+](=O)[O-] [Compound 59] | 100 to 500
O=C(Nc1ccc(S(=O)(=O)NCCO)cc1N1CCC2(CC1)CC2)c1ccc([N+](=O)[O-])c(N2CCOCC2)c1 [Compound 60] | 100 to 500
